In patent US20100267561A1, “HERBICIDAL PYRIDAZINONE DERIVATIVES” (priority 2007, published 2010):

Tests used:
Experiment in all cases: Test C pre-/postemergence plant response
Type in all cases: in vivo
[1] = system: pigweed (Amaranthus retroflexus)
In short: (§1)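 Greenhouse-type test under controlled conditions: soil-surface preemergence treatment of sown seed and foliar postemergence treatment of seedlings 2–18 cm tall. Each compound was in non-phytotoxic solvent with surfactant. Response was rated by eye after 15–25 days, 0 to 100, against controls.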

[2] = system: windgrass (Apera spica-venti)
In short: as §1

[3] = system: canarygrass (Phalaris minor)
In short: as §1

[4] = system: wild mustard (Sinapis arvensis)
In short: as §1

[5] = system: green foxtail (Setaria viridis)
In short: as §1

canola (Brassica rapa) = system: canola (Brassica rapa)
In short: as §1

[6] = system: winter barley (Hordeum vulgare)
In short: as §1

[7] = system: downy bromegrass (Bromus tectorum)
In short: as §1

[8] = system: spring wheat (Triticum aestivum)
In short: as §1

[9] = system: Italian ryegrass (Lolium multiflorum)
In short: as §1

wild oat (Avena fatua) = system: wild oat (Avena fatua)
In short: as §1

[10] = system: blackgrass (Alopecurus myosuroides)
In short: as §1

[11] = system: spring barley (Hordeum vulgare)
In short: as §1

[12] = system: winter wheat (Triticum aestivum)
In short: as §1

[13] = system: annual bluegrass (Poa annua)
In short: as §1

[14] = Postemergence, 8 g ai/ha, scale 0 to 100, 0 no effect, 100 complete control
[15] = Postemergence, 16 g ai/ha, scale 0 to 100, 0 no effect, 100 complete control
[16] = Postemergence, 31 g ai/ha, scale 0 to 100, 0 no effect, 100 complete control
[17] = Postemergence, 62 g ai/ha, scale 0 to 100, 0 no effect, 100 complete control
[18] = Preemergence, 8 g ai/ha, scale 0 to 100 (0 no effect, 100 complete control)
[19] = Preemergence, 16 g ai/ha, scale 0 to 100 (0 no effect, 100 complete control)
[20] = Preemergence, 31 g ai/ha, scale 0 to 100 (0 no effect, 100 complete control)
[21] = Preemergence, 62 g ai/ha, scale 0 to 100, 0 no effect, 100 complete control

SMILES: CCCc1cc(-c2ccc(Cl)cc2)nn1-c1c(O)cnn(C)c1=O [Compound 43]
- Plant response rating, Pigweed [1, 14]: 0
- Plant response rating, Pigweed [1, 15]: 0
- Plant response rating, Pigweed [1, 16]: 0
- Plant response rating, Pigweed [1, 17]: 0
- Plant response rating, Pigweed [1, 18]: 0
- Plant response rating, Pigweed [1, 19]: 0
- Plant response rating, Pigweed [1, 20]: 0
- Plant response rating, Pigweed [1, 21]: 20
- Plant response rating, Windgrass [2, 14]: 30
- Plant response rating, Windgrass [2, 15]: 60
- Plant response rating, Windgrass [2, 16]: 60
- Plant response rating, Windgrass [2, 17]: 60
- Plant response rating, Windgrass [2, 19]: 25
- Plant response rating, Windgrass [2, 20]: 80
- Plant response rating, Windgrass [2, 21]: 100
- Plant response rating, Canarygrass [3, 14]: 65
- Plant response rating, Canarygrass [3, 15]: 75
- Plant response rating, Canarygrass [3, 16]: 85
- Plant response rating, Canarygrass [3, 17]: 95
- Plant response rating, Canarygrass [3, 18]: 50
- Plant response rating, Canarygrass [3, 19]: 65
- Plant response rating, Canarygrass [3, 20]: 75
- Plant response rating, Canarygrass [3, 21]: 95
- Plant response rating, Mustard, Wild [4, 14]: 0
- Plant response rating, Mustard, Wild [4, 15]: 0
- Plant response rating, Mustard, Wild [4, 16]: 0
- Plant response rating, Mustard, Wild [4, 17]: 25
- Plant response rating, Mustard, Wild [4, 18]: 0
- Plant response rating, Mustard, Wild [4, 19]: 0
- Plant response rating, Mustard, Wild [4, 20]: 0
- Plant response rating, Mustard, Wild [4, 21]: 0
- Plant response rating, Foxtail, Green [5, 14]: 90
- Plant response rating, Foxtail, Green [5, 15]: 95
- Plant response rating, Foxtail, Green [5, 16]: 98
- Plant response rating, Foxtail, Green [5, 17]: 98
- Plant response rating, Foxtail, Green [5, 18]: 75
- Plant response rating, Foxtail, Green [5, 19]: 100
- Plant response rating, Foxtail, Green [5, 20]: 100
- Plant response rating, Foxtail, Green [5, 21]: 100
- Plant response rating, Canola (canola (Brassica rapa); [14]): 0
- Plant response rating, Canola (canola (Brassica rapa); [15]): 0
- Plant response rating, Canola (canola (Brassica rapa); [16]): 0
- Plant response rating, Canola (canola (Brassica rapa); [17]): 0
- Plant response rating, Canola (canola (Brassica rapa); [18]): 0
- Plant response rating, Canola (canola (Brassica rapa); [20]): 0
- Plant response rating, Canola (canola (Brassica rapa); [21]): 0
- Plant response rating, Barley, Winter [6, 14]: 5
- Plant response rating, Barley, Winter [6, 15]: 15
- Plant response rating, Barley, Winter [6, 16]: 40
- Plant response rating, Barley, Winter [6, 17]: 80
- Plant response rating, Barley, Winter [6, 18]: 0
- Plant response rating, Barley, Winter [6, 19]: 20
- Plant response rating, Barley, Winter [6, 20]: 50
- Plant response rating, Barley, Winter [6, 21]: 65
- Plant response rating, Bromegrass, Downy [7, 14]: 0
- Plant response rating, Bromegrass, Downy [7, 15]: 0
- Plant response rating, Bromegrass, Downy [7, 16]: 0
- Plant response rating, Bromegrass, Downy [7, 17]: 75
- Plant response rating, Bromegrass, Downy [7, 18]: 10
- Plant response rating, Bromegrass, Downy [7, 19]: 25
- Plant response rating, Bromegrass, Downy [7, 20]: 40
- Plant response rating, Bromegrass, Downy [7, 21]: 75
- Plant response rating, Wheat, Spring [8, 14]: 0
- Plant response rating, Wheat, Spring [8, 15]: 15
- Plant response rating, Wheat, Spring [8, 16]: 60
- Plant response rating, Wheat, Spring [8, 17]: 90
- Plant response rating, Wheat, Spring [8, 18]: 0
- Plant response rating, Wheat, Spring [8, 19]: 0
- Plant response rating, Wheat, Spring [8, 20]: 30
- Plant response rating, Wheat, Spring [8, 21]: 65
- Plant response rating, Ryegrass, Italian [9, 14]: 75
- Plant response rating, Ryegrass, Italian [9, 15]: 98
- Plant response rating, Ryegrass, Italian [9, 16]: 100
- Plant response rating, Ryegrass, Italian [9, 17]: 100
- Plant response rating, Ryegrass, Italian [9, 18]: 60
- Plant response rating, Ryegrass, Italian [9, 19]: 98
- Plant response rating, Ryegrass, Italian [9, 20]: 98
- Plant response rating, Ryegrass, Italian [9, 21]: 98
- Plant response rating, Oat, Wild (wild oat (Avena fatua); [14]): 100
- Plant response rating, Oat, Wild (wild oat (Avena fatua); [15]): 100
- Plant response rating, Oat, Wild (wild oat (Avena fatua); [16]): 100
- Plant response rating, Oat, Wild (wild oat (Avena fatua); [17]): 100
- Plant response rating, Oat, Wild (wild oat (Avena fatua); [18]): 35
- Plant response rating, Oat, Wild (wild oat (Avena fatua); [19]): 70
- Plant response rating, Oat, Wild (wild oat (Avena fatua); [20]): 80
- Plant response rating, Oat, Wild (wild oat (Avena fatua); [21]): 98
- Plant response rating, Blackgrass [10, 14]: 90
- Plant response rating, Blackgrass [10, 15]: 98
- Plant response rating, Blackgrass [10, 16]: 100
- Plant response rating, Blackgrass [10, 17]: 100
- Plant response rating, Blackgrass [10, 18]: 85
- Plant response rating, Blackgrass [10, 19]: 90
- Plant response rating, Blackgrass [10, 20]: 98
- Plant response rating, Blackgrass [10, 21]: 100
- Plant response rating, Barley, Spring [11, 14]: 20
- Plant response rating, Barley, Spring [11, 15]: 35
- Plant response rating, Barley, Spring [11, 16]: 50
- Plant response rating, Barley, Spring [11, 17]: 90
- Plant response rating, Barley, Spring [11, 18]: 0
- Plant response rating, Barley, Spring [11, 19]: 20
- Plant response rating, Barley, Spring [11, 20]: 35
- Plant response rating, Barley, Spring [11, 21]: 60
- Plant response rating, Wheat, Winter [12, 14]: 5
- Plant response rating, Wheat, Winter [12, 15]: 25
- Plant response rating, Wheat, Winter [12, 16]: 40
- Plant response rating, Wheat, Winter [12, 17]: 65
- Plant response rating, Wheat, Winter [12, 18]: 0
- Plant response rating, Wheat, Winter [12, 19]: 0
- Plant response rating, Wheat, Winter [12, 20]: 20
- Plant response rating, Wheat, Winter [12, 21]: 70
- Plant response rating, Bluegrass [13, 14]: 0
- Plant response rating, Bluegrass [13, 15]: 0
- Plant response rating, Bluegrass [13, 16]: 0
- Plant response rating, Bluegrass [13, 17]: 15
- Plant response rating, Bluegrass [13, 18]: 0
- Plant response rating, Bluegrass [13, 19]: 0
- Plant response rating, Bluegrass [13, 21]: 25
